Measurements taken from patent publication US9637460B2, “Isotopically enriched arylsulfonamide CCR3 antagonists” (Axikin Pharmaceuticals, Inc., priority 2012, dated 2017).
Like-named read-outs stand apart in the source and are kept apart here.

Key:
[1] = Pharmacokinetic studies in rats; conditions: rat, in vivo, 3 mg/kg, 3 mg/kg in EtOH/Solutol/H2O formulation
Procedure: Pharmacokinetic properties of 4-(3,5-dichloro-2,4,6-trideuteriumphenoxy)-3-(3-oxo-piperazine-1-sulfonyl)-2,5,6-trideuteriumbenzonitrile 36 and 4-(3,5-dichlorophenoxy)-3-(3-oxo-piperazine-1-sulfonyl)benzonitrile C1 were determined using rats. Animals were randomized into two groups, each having 3 rats. 4-(3,5-Dichloro-2,4,6-trideuteriumphenoxy)-3-(3-oxo-piperazine-1-sulfonyl)-2,5,6-trideuteriumbenzonitrile 36 and 4-(3,5-dichlorophenoxy)-3-(3-oxo-piperazine-1-sulfonyl)benzonitrile C1 were administered at 3 mg/kg in EtOH/Solutol/H2O formulations. Pharmacokinetic parameters of 4-(3,5-dichloro-2,4,6-trideuteriumphenoxy)-3-(3-oxo-piperazine-1-sulfonyl)-2,5,6-trideuteriumbenzonitrile 36 and 4-(3,5-dichlorophenoxy)-3-(3-oxo-piperazine-1-sulfonyl)benzonitrile C1 are summarized in Table 2. 4-(3,5-dichlorophenoxy)-3-(3-oxo-piperazine-1-sulfonyl)benzonitrile C1 was synthesized according to the procedure as described in U.S. Pat. App. Pub. No.: US 2011/0218207, the disclosure of which is incorporated herein by reference in its entirety.

Cmax ([1]; Rat 1)	Tmax ([1]; Rat 1)	half-life ([1]; Rat 1)	AUC ([1]; Rat 1, read-out: AUC)	AUC ([1]; Rat 1, read-out: AUCnorm)	Cmax ([1]; Rat 2)	Tmax ([1]; Rat 2)	half-life ([1]; Rat 2)	AUC ([1]; Rat 2, read-out: AUC)	AUC ([1]; Rat 2, read-out: AUCnorm)	Cmax ([1]; Rat 3)	Tmax ([1]; Rat 3)	half-life ([1]; Rat 3)	AUC ([1]; Rat 3, read-out: AUC)	AUC ([1]; Rat 3, read-out: AUCnorm)	melting point	Compound
166 ng/mL	2 h	3.3 h	820 ng·h/mL	273 ng·h/mL	46.3 ng/mL	4 h	1.12 h	272 ng·h/mL	90.6 ng·h/mL	128 ng/mL	0.3 h	1.51 h	490 ng·h/mL	163 ng·h/mL	207 to 210 °C	[2H]c1c(Cl)c([2H])c(Oc2c([2H])c([2H])c(C#N)c([2H])c2S(=O)(=O)N2CCNC(=O)C2)c([2H])c1Cl [Compound 36, 4-(3,5-dichloro-2,4,6-trideuteriumphenoxy)-3-(3-oxo-piperazine-1-sulfonyl)-2,5,6-trideuteriumbenzonitrile]
34.4 ng/mL	2 h	5.52 h	200 ng·h/mL	66.6 ng·h/mL	65.8 ng/mL	4 h	3.72 h	450 ng·h/mL	150 ng·h/mL	59.9 ng/mL	2 h	4.04 h	317 ng·h/mL	106 ng·h/mL	–	N#Cc1ccc(Oc2cc(Cl)cc(Cl)c2)c(S(=O)(=O)N2CCNC(=O)C2)c1 [Compound C1, 4-(3,5-dichlorophenoxy)-3-(3-oxo-piperazine-1-sulfonyl)benzonitrile, reference compound]
